Measurements published in patent US20260287577A1, “APPLICATIONS OF HEPATOCYTE CO-CULTURE SYSTEM” (LifeNet Health, priority 2023, published 2026).

Columns and labels:
Format in all cases: cell-based, human
[1] = test system: PHHs in the hTCS and DhTCS; assay: Albumin secretion (ELISA) by PHHs in hTCS/DhTCS; details: normal PHHs in hTCS
Protocol: Albumin and Urea Assays. Supernatant was collected on the indicated days for measurement of albumin and urea. Three wells or greater were designated for each condition. Samples were run in duplicate. The concentration of albumin was determined using an ELISA assay (Abcam, Cambridge, MA) and performed according to the manufacturer's instructions. Urea was measured by a colorimetric kit (Stanbio, Boerne, TX) and performed according to the manufacturer's instructions. Bicinchoninic Acid Assay (BCA). The BCA assay was performed with supernatant collected on the designated day. Three wells or greater were designated for each condition. Samples were run in duplicate. Total protein concentration was determined using a kit (Thermo Fisher, Waltham, MA) and performed according to the manufacturer's instructions. Glucose, Oleic Acid, and OCA Treatment.

[2] = test system: PHHs cultured in the hTCS; assay: Bile canaliculi formation, CDFDA staining; details: normal PHHs in hTCS, treated medium with addition of OCA (0.5 μM)
Protocol: Glucose, Oleic Acid, and OCA Treatment. […] 5-(and-6)-Carboxy-2′, 7′-Dichlorofluorescein Diacetate Staining. To visualize bile canaliculi formation, cells were rinsed twice with 1×DPBS (—Ca^++/—Mg^++) (Thermo Fisher). Fresh medium plus 5 μM 5-(and-6)-Carboxy-2′, 7′-Dichlorofluorescein Diacetate (CDFDA) (Thermo Fisher) were added to the cells and incubated for 20 minutes at 37° C. Cells were then washed twice with 1×DPBS (—Ca^++/—Mg^++), and DMEM (no phenol red) (Gibco) was added to the cells. Images were taken with an EVOS FL cell imaging system (Thermo Fisher) using a 10× objective.

[3] = test system: PHHs in the hTCS and DhTCS; assay: Nile Red staining of lipid accumulation in PHHs cultured in hTCS/DhTCS; details: normal PHHs in hTCS, lipogenic medium plus 0.5 μM OCA
Description: All-Human Triculture System. The hTCS was set up as previously described, including the medias, cell types, and expected functional performance. This protocol follows the guidelines of […] Health's ethics committee. All cells were isolated from donor tissue fully consented for research purposes by […] Health. PHHs have been designated as normal or diseased based on a histopathologic assessment of the tissue of origin by a board-certified pathologist, using the standard MASH CRN Scoring System. Formalin-fixed paraffin-embedded tissue sections were stained with H&E (FIG. 38) and Masson's Trichrome (FIG. 39) and assessed for steatosis, lobular inflammation, and hepatocyte ballooning to form the MAFLD Activity Score (NAS). Fibrosis was scored separately on a 4-point scale according to the classification as described by Kleiner et al (Kleiner et al., 2005). Tissues with a NAS of ≥4 were designated “Diseased” (n=4) while those with NAS of ≤3 were categorized as “Normal” (n=7) (Table 1). Glucose, Oleic Acid, and OCA Treatment. […] Nile Red Staining. Cells were washed with 1×DPBS (-Ca^++/-Mg^++) (Thermo Fisher) three times, and then Nile Red was added at a 1:500 dilution (Abcam). […] Nile Red staining was quantified by determining the densitometric fluorescence value (red channel) using Image J.

CC[C@H]1[C@@H](O)[C@@H]2[C@H](CC[C@]3(C)[C@@H]([C@H](C)CCC(=O)O)CC[C@@H]23)[C@@]2(C)CC[C@@H](O)C[C@@H]12 [OCA, 6α-ethyl-chenodeoxycholic acid]
albumin, treated plus OCA compared to treated only ([1]; day 1, not significant): An increase in albumin
albumin secretion ([1]; lipogenic medium plus 0.5 μM OCA, day 7): 13,706±4,738 ng/mg total protein
albumin levels ([1]; lipogenic medium plus 0.5 μM OCA, day 14): 2,219±400 ng/mg total protein
bile canalicular network formation compared to untreated PHHs [2]: appeared to increase bile canalicular network formation
Nile Red staining (lipid accumulation) ([3]; day 7): 134.6%±13.6
Nile Red staining (lipid accumulation) ([3]; day 14, significantly less than treated only, 20160 min): 126.1%±8.5
